Results published in patent publication US8481584B2, “1H-thieno[2,3-c]pyrazole derivatives useful as kinase inhibitors” (Nerviano Medical Sciences S.R.L., priority 2004, dated 2013).
Where two headings read alike, the source gives them in different places.

Columns and labels:
Aurora-2 = molecular target: T1, Aurora-2 (Homo sapiens, UniProt O14965); assay: Inhibition assay of Aurora-2 activity (SPA technology); type: biochemical
T1 sequence (O14965 1-403): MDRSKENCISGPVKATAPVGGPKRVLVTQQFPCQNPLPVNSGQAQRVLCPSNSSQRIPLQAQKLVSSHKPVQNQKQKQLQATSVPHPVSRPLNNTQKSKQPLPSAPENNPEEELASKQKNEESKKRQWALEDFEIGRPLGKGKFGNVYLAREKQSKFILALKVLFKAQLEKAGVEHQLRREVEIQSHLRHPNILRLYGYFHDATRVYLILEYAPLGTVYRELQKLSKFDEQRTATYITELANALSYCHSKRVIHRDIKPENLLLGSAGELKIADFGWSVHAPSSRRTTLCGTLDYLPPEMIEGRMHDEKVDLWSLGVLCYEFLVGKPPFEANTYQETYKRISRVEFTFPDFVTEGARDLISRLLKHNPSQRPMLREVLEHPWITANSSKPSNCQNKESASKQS
Procedure: The inhibiting activity and the potency of selected compounds is determined through a method of assay based on the use of the SPA technology (Amersham Pharmacia Biotech).
The assay consists of the transfer of radioactivity labelled phosphate moiety by the kinase to a biotinylated substrate. The resulting 33P-labelled biotinylated product is allowed to bind to streptavidin-coated SPA beads (biotin capacity 130 pmol/mg), and light emitted was measured in a scintillation counter.
Inhibition Assay of Aurora-2 Activity
After 60 minutes at room temperature incubation, reaction was stopped and biotinylated peptide captured by adding 100 μl of bead suspension.
Stratification: 100 μl of CsCl2 5 M were added to each well and let stand 4 hour before radioactivity was counted in the Top-Count instrument.
Experimental data were analyzed by the computer program GraphPad Prizm using the four parameter logistic equation: y=bottom+(top−bottom)/(1+10^((logIC50−x)*slope)) where x is the logarithm of the inhibitor concentration, y is the response; y starts at bottom and goes to top with a sigmoid shape.

[1] = test system: human colon cancer cell line HCT-116; assay: In vitro cell proliferation assay; type: cell-based; details: HCT-116, 72 hours of treatment, cell count, read-out: Cell Antiproliferation IC50
Procedure: The compounds of the invention were further tested, in vitro, to assess the anti-proliferative effect onto cell cultures.
In Vitro Cell Proliferation Assay
The human colon cancer cell line HCT-116 was seeded at 5000 cells/cm2 in 24 wells plate (Costar) using F12 medium (Gibco) supplemented with 10% FCS (EuroClone, Italy) 2 mM L-glutamine and 1% penicillin/streptomycin and maintained at 37° C., 5% CO2 and 96% relative humidity. The following day, plates were treated in duplicates with 5 ul of an appropriate dilution of compounds starting from a 10 mM stock in DMSO. Two untreated control wells were included in each plate. After 72 hours of treatment, medium was withdrawn and cells detached from each well using 0.5 mL of 0.05% (w/v) Trypsin, 0.02% (w/v) EDTA (Gibco). Samples were diluted with 9.5 mL of Isoton (Coulter) and counted using a Multisizer 3 cell counter (Beckman Coulter). Data were evaluated as percent of the control wells: % of CTR=(Treated−Blank)/(Control−Blank).
IC50 values were calculated by LSW/Data Analysis using Microsoft Excel sigmoidal curve fitting.

[2] = SPA assay, 10 μM ATP, 60 minutes at room temperature, read-out: Aurora-2 inhibition IC50
[3] = screened according to the methods of the pharmacology section, read-out: IC50 values for Aurora-2 inhibition

Structure (SMILES)	IC50 (Aurora-2; [2])	IC50 (Aurora-2; [3])	IC50 [1]
O=C(Nc1n[nH]c2sc(C(=O)N[C@H](CN3CCCC3)c3ccccc3)cc12)c1ccc(N2CCOCC2)cc1 [Compound 5, 3-[(4-morpholin-4-ylbenzoyl)amino]-N-[(1S)-1-phenyl-2-pyrrolidin-1-ylethyl]-1H-thieno[2,3-c]pyrazole-5-carboxamide]	9 nM	< 20 nM	30 nM
C[C@@H](NC(=O)c1cc2c(NC(=O)c3ccc(N4CCOCC4)cc3)n[nH]c2s1)c1ccc(F)cc1 [Compound 3, N-[(1R)-1-(4-fluorophenyl)ethyl]-3-[(4-morpholin-4-ylbenzoyl)amino]-1H-thieno[2,3-c]pyrazole-5-carboxamide]	6 nM	< 20 nM	35 nM
CC(C)(NC(=O)c1cc2c(NC(=O)c3cccs3)n[nH]c2s1)c1ccccc1 [Compound 16, N-(1-methyl-1-phenylethyl)-3-[(thien-2-ylcarbonyl)amino]-1H-thieno[2,3-c]pyrazole-5-carboxamide]	3 nM	< 20 nM	56 nM
O=C(Nc1n[nH]c2sc(C(=O)NCc3ccccc3)cc12)c1ccc(N2CCOCC2)cc1 [Reference compound, N-benzyl-3-[(4-morpholin-4-ylbenzoyl)amino]-1H-thieno[2,3-c]pyrazole-5-carboxamide, reference compound]	18 nM		184 nM
O=C(Nc1n[nH]c2sc(C(=O)NC3(c4ccccc4)CC3)cc12)c1ccc(N2CCOCC2)cc1 [Compound 2, 3-[(4-morpholin-4-ylbenzoyl)amino]-N-(1-phenylcyclopropyl)-1H-thieno[2,3-c]pyrazole-5-carboxamide]	3 nM	< 20 nM	23 nM
CN1CCN(c2ccc(C(=O)Nc3n[nH]c4sc(C(=O)NC(C)(C)c5ccccc5)cc34)cc2)CC1 [Compound 29, N-(1-methyl-1-phenylethyl)-3-{[4-(4-methylpiperazin-1-yl)benzoyl]amino}-1H-thieno[2,3-c]pyrazole-5-carboxamide]	1 nM	< 20 nM	2 nM
C[C@@H](NC(=O)c1cc2c(NC(=O)c3ccc(N4CCN(C)CC4)cc3)n[nH]c2s1)c1ccccc1 [Compound 36, 3-{[4-(4-methylpiperazin-1-yl)benzoyl]amino}-N-[(1R)-1-phenylethyl]-1H-thieno[2,3-c]pyrazole-5-carboxamide]			5 nM
O=C(Nc1n[nH]c2sc(C(=O)N[C@H](CN3CCCC3)c3ccccc3)cc12)c1cccs1 [Compound 19, N-[(1S)-1-phenyl-2-pyrrolidin-1-ylethyl]-3-[(thien-2-ylcarbonyl)amino]-1H-thieno[2,3-c]pyrazole-5-carboxamide]		< 20 nM	
CC(C)N(C)Cc1ccc(C(=O)Nc2n[nH]c3sc(C(=O)NC(C)(C)c4ccccc4)cc23)cc1 [Compound 64, 3-{4-[(Isopropyl-methyl-amino)-methyl]benzoylamino}-1H-thieno[2,3-c]pyrazole-5-carboxylic acid (1-methyl-1-phenyl-ethyl)-amide]		< 20 nM	
CN1CCN(Cc2ccc(C(=O)Nc3n[nH]c4sc(C(=O)NC(C)(C)c5ccccc5)cc34)cc2)CC1 [Compound 27, N-(1-methyl-1-phenylethyl)-3-({4-[(4-methylpiperazin-1-yl)methyl]benzoyl}amino)-1H-thieno[2,3-c]pyrazole-5-carboxamide]		< 20 nM	
CC(C)(NC(=O)c1cc2c(NC(=O)c3ccc(N4CCOCC4)cc3)n[nH]c2s1)c1cccc(F)c1 [Compound 149, 3-(4-Morpholin-4-yl-benzoylamino)-1H-thieno[2,3-c]pyrazole-5-carboxylic acid [1-(3-fluoro-phenyl)-1-methyl-ethyl]-amide]		< 20 nM	
CC[C@@H](NC(=O)c1cc2c(NC(=O)c3cccs3)n[nH]c2s1)c1ccccc1 [Compound 20, N-[(1R)-1-phenylpropyl]-3-[(thien-2-ylcarbonyl)amino]-1H-thieno[2,3-c]pyrazole-5-carboxamide]		< 20 nM	
CC(C)(NC(=O)c1cc2c(NC(=O)c3ccc(CN4CCS(=O)(=O)CC4)cc3)n[nH]c2s1)c1ccccc1 [Compound 41, 3-[4-(1,1-Dioxo-1-thiomorpholin-4-ylmethyl)-benzoylamino]-1H-thieno[2,3-c]pyrazole-5-carboxylic acid(1-methyl-1-phenyl-ethyl)-amide]		< 20 nM	
CC(C)(NC(=O)c1cc2c(NC(=O)c3ccc(N4CCOCC4)cc3)n[nH]c2s1)c1ccccc1 [Compound 1, N-(1-methyl-1-phenylethyl)-3-[(4-morpholin-4-ylbenzoyl)amino]-1H-thieno[2,3-c]pyrazole-5-carboxamide]	5 nM	< 20 nM	6 nM
CCC(CC)(NC(=O)c1cc2c(NC(=O)c3ccc(N4CCN(C)CC4)cc3)n[nH]c2s1)c1ccccc1 [Compound 33, N-(1-ethyl-1-phenylpropyl)-3-{[4-(4-methylpiperazin-1-yl)benzoyl]amino}-1H-thieno[2,3-c]pyrazole-5-carboxamide]		< 20 nM	
O=C(Nc1n[nH]c2sc(C(=O)NC3(c4ccccc4)CC3)cc12)c1ccco1 [Compound 23, 3-(2-furoylamino)-N-(1-phenylcyclopropyl)-1H-thieno[2,3-c]pyrazole-5-carboxamide]		< 20 nM	
CC(C)(NC(=O)c1cc2c(NC(=O)c3ccc(CNC4CCCC4)cc3)n[nH]c2s1)c1ccccc1 [Compound 65, 3-(4-Cyclopentylaminomethyl-benzoylamino)-1H-thieno[2,3-c]pyrazole-5-carboxylic acid (1-methyl-1-phenyl-ethyl)-amide]		< 20 nM	
O=C(Nc1n[nH]c2sc(C(=O)NC3(c4ccccc4)CCCC3)cc12)c1ccc(N2CCOCC2)cc1 [Compound 131, 3-(4-Morpholin-4-yl-benzoylamino)-1H-thieno[2,3-c]pyrazole-5-carboxylic acid (1-phenyl-cyclopentyl)-amide]		< 20 nM	
CC(C)(NC(=O)c1cc2c(NC(=O)c3ccc(CN4CCCC4)cc3)n[nH]c2s1)c1ccccc1 [Compound 37, 3-(4-Pyrrolidin-1-ylmethyl-benzoylamino)-1H-thieno[2,3-c]pyrazole-5-carboxylic acid (1-methyl-1-phenyl-ethyl)-amide]		< 20 nM	
CC[C@@H](NC(=O)c1cc2c(NC(=O)c3ccc(N4CCOCC4)cc3)n[nH]c2s1)c1ccccc1 [Compound 4, 3-[(4-morpholin-4-ylbenzoyl)amino]-N-[(1R)-1-phenylpropyl]-1H-thieno[2,3-c]pyrazole-5-carboxamide]		< 20 nM	
